Test results from patent US9994551B2, “Pyridazine derivatives as RORc modulators” (Genentech, Inc., priority 2015, dated 2018).

biological target: T1, RORc ligand binding domain (Homo sapiens, UniProt P51449); test: In vitro RORc ligand binding assay (25-[3H]hydroxycholesterol displacement, filter binding)
T1 construct: host or cells: E. coli
T1 sequence (P51449 269-508 limits assumed): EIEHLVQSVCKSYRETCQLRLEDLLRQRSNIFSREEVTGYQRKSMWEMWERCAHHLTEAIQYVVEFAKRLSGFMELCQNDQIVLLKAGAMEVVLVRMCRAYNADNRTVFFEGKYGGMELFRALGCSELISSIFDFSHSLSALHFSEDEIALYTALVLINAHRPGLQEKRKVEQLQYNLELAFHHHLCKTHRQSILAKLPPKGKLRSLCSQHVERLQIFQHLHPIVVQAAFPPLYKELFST
Procedure: This assay was used to determine a compound's potency in inhibiting activity of RORc by determining, Kiapp, IC50, or percent inhibition values.
On day of the assay, 100 uL of 0.05% CHAPS (in deionized H2O) was added to all wells of the GFB Unifilter plate and allowed soak for 1 h. A wash buffer of 50 mM HEPES (pH 7.4), 150 mM NaCl, and 5 mM MgCl2 was prepared to wash the filter plate. To prepare an assay buffer, BSA was added to the wash buffer to reach 0.01% and DTT was added to reach 1 mM.
The 20× compound stocks were diluted in DMSO with Assay Buffer 4-fold to reach 5× the final test concentration in 25% DMSO (10 uL compound+30 uL Assay Buffer). Solutions were mixed by aspiration several times with a pipette set on 50 uL volume. For the assay, 10 uL of 5× compound stock solutions in 25% DMSO were added to the assay plate in duplicate.
For two point screening, 10 mM stock compound solutions were diluted in DMSO to obtain 200 uM (20× the high test concentration) and then diluted 10-fold further to reach 20 uM (20× the low test concentration). The 20× stocks were diluted 4-fold with Assay Buffer (10 uL compound+30 uL Assay Buffer) to reach 5× the test concentrations (50 uM and 5 uM) and 10 uL were added to two assay plates for the duplicate wells. With each concentration tested on 2 plates, each set of 80 compounds used 4 assay plates (1 uM and 10 uM, with n=2).
For 25-hydroxycholesterol in 25% DMSO/75% Assay Buffer; 10 uL per well was used for NSB samples. Wells for Total Binding and No Receptor sample determination contained 10 uL of 25% DMSO/75% Assay Buffer per well.
Add 20 uL to all wells to reach 6 nM final concentration in the assay.
Stock receptor solution was diluted in assay buffer to obtain 1.5 ug/mL in Assay Buffer. 20 uL was added to all wells. For No Receptor samples, 20 uL Assay Buffer was substituted for receptor solution.
Assay plates were 96-well polypropylene V-bottom plates. 10 uL of 5× compound in 25% DMSO/75% Assay Buffer was added to Test wells. 10 uL of 25% DMSO/75% Assay Buffer was added to Total Binding or No Receptor wells. 10 uL of 5 uM 25-hydroxycholesterol in 25% DMSO/75% Assay Buffer was added to NSB wells. […] 20 uL of 1.5 ug/mL RORc receptor was added to wells (or 40 uL Assay Buffer to No R wells). Following addition to the wells, the plates were incubated 3 h at 25° C.
Using a Packard Filtermate Harvester, the filter plate were washed 4 times following transfer of the incubated samples. Plates were dry-filtered completely (2 h at 50° C. or overnight at room temperature). 50 uL Microscint 0 was added to all wells and read on Topcount protocol Inverted.

| SMILES | IC50 [nM] |
| --- | --- |
| CC1(C)[C@H]2CC[C@]1([C@@H]1CN(c3ccccn3)CCO1)c1nnc(-c3c(F)cccc3F)cc12 [Compound 79, (R)-2-((5R,8R)-3-(2,6-difluorophenyl)-9,9-dimethyl-5,6,7,8-tetrahydro-5,8-methanocinnolin-8-yl)-4-(pyridin-2-yl)morpholine] | 412 |
| CC[C@H](O[C@@]12CC[C@@H](c3cc(-c4c(F)cccc4F)nnc31)C2(C)C)C(=O)OC [Compound 110, methyl (2S)-2-[[(1R,8S)-5-(2,6-difluorophenyl)-11,11-dimethyl-3,4-diazatricyclo[6.2.1.02,7]undeca-2,4,6-trien-1-yl]oxy]butanoate] | 100 |
| CNC(=O)N1CCC[C@H]([C@@]23CC[C@@H](c4cc(-c5c(F)cccc5F)nnc42)C3(C)C)C1 [Compound 96, (R)-3-((5R,8R)-3-(2,6-difluorophenyl)-9,9-dimethyl-5,6,7,8-tetrahydro-5,8-methanocinnolin-8-yl)-N-methylpiperidine-1-carboxamide] | 13 |
| CNC(=O)c1cnc(O[C@@]23CC[C@@H](c4cc(-c5c(F)cccc5F)nnc42)C3(C)C)cn1 [Compound 9, 5-(((5S,8R)-3-(2,6-difluorophenyl)-9,9-dimethyl-5,6,7,8-tetrahydro-5,8-methanocinnolin-8-yl)oxy)-N-methylpyrazine-2-carboxamide] | 325 |
| CC1(C)[C@H]2CC[C@]1([C@H]1CCCN(C(=O)c3cocn3)C1)c1nnc(-c3c(F)cccc3F)cc12 [Compound 122, [3-[5-(2,6-difluorophenyl)-11,11-dimethyl-3,4-diazatricyclo[6.2.1.02,7]undeca-2,4,6-trien-1-yl]-1-piperidyl]-oxazol-4-yl-methanone] | 21 |
| CC1(C)[C@H]2CC[C@]1(Oc1cncc(C(=O)NCCO)n1)c1nnc(-c3c(F)cccc3F)cc12 [Compound 30, 6-(((5S,8R)-3-(2,6-difluorophenyl)-9,9-dimethyl-5,6,7,8-tetrahydro-5,8-methanocinnolin-8-yl)oxy)-N-(2-hydroxyethyl)pyrazine-2-carboxamide] | 836 |
| CC1(C)[C@H]2CC[C@]1(O[C@@H](C(N)=O)C1CC1)c1nnc(-c3c(F)cccc3F)cc12 [Compound 44] | 14.5 |
| CC(C)NC(=O)N1CCC[C@H]([C@@]23CC[C@@H](c4cc(-c5c(F)cccc5F)nnc42)C3(C)C)C1 [Compound 137, 3-[5-(2,6-difluorophenyl)-11,11-dimethyl-3,4-diazatricyclo[6.2.1.02,7]undeca-2,4,6-trien-1-yl]-N-isopropyl-piperidine-1-carboxamide] | 42 |
| CCC[C@@H](O[C@@]12CC[C@@H](c3cc(-c4c(F)cccc4F)nnc31)C2(C)C)C(N)=O [Compound 49, (R)-2-(((5S,8R)-3-(2,6-difluorophenyl)-9,9-dimethyl-5,6,7,8-tetrahydro-5,8-methanocinnolin-8-yl)oxy)pentanamide] | 15.4 |
| CC1(C)[C@H]2CC[C@]1([C@H]1CCCN(c3ccccn3)C1)c1nnc(-c3c(F)cccc3F)cc12 [Compound 163, 5-(2,6-difluorophenyl)-11,11-dimethyl-1-[1-(2-pyridyl)-3-piperidyl]-3,4-diazatricyclo[6.2.1.02,7]undeca-2,4,6-triene] | 27 |
| CC1(C)[C@H]2CC[C@]1([C@H]1CCCN(C(=O)NC3(CO)COC3)C1)c1nnc(-c3c(F)cccc3F)cc12 [Compound 171] | 6.5 |
| CC1(C)[C@H]2CC[C@]1([C@H]1CCCN(C(=O)c3cc[nH]n3)C1)c1nnc(-c3c(F)cccc3F)cc12 [Compound 135, [3-[5-(2,6-difluorophenyl)-11,11-dimethyl-3,4-diazatricyclo[6.2.1.02,7]undeca-2,4,6-trien-1-yl]-1-piperidyl]-(1H-pyrazol-3-yl)methanone] | 6.7 |
| CC[C@@H](O[C@@]12CC[C@@H](c3cc(-c4c(F)cccc4F)nnc31)C2(C)C)c1nc(COC)no1 [Compound 41, 5-((R)-1-(((5S,8R)-3-(2,6-difluorophenyl)-9,9-dimethyl-5,6,7,8-tetrahydro-5,8-methanocinnolin-8-yl)oxy)propyl)-3-(methoxymethyl)-1,2,4-oxadiazole] | 4 |

Results, then the compound that gave them:

| IC50 [nM] | SMILES |
| --- | --- |
| 20 | CC1(C)[C@H]2CC[C@]1([C@H]1CCCN(c3cc[nH]c(=O)c3)C1)c1nnc(-c3c(F)cccc3F)cc12 [Compound 172, 4-[3-[5-(2,6-difluorophenyl)-11,11-dimethyl-3,4-diazatricyclo[6.2.1.02,7]undeca-2,4,6-trien-1-yl]-1-piperidyl]-1H-pyridin-2-one] |
| 11 | CC1(C)[C@H]2CC[C@]1([C@@H]1CN(C(=O)c3c[nH]c(=O)cn3)CCO1)c1nnc(-c3c(F)cccc3F)cc12 [Compound 118, 5-[2-[5-(2,6-difluorophenyl)-11,11-dimethyl-3,4-diazatricyclo[6.2.1.02,7]undeca-2,4,6-trien-1-yl]morpholine-4-carbonyl]-1H-pyrazin-2-one] |
| 47 | CC[C@@H](O[C@]12CC[C@H](c3cc(-c4c(F)cccc4F)nnc31)C2(C)C)C(=O)O [Compound 113, (2R)-2-[[(1S,8R)-5-(2,6-difluorophenyl)-11,11-dimethyl-3,4-diazatricyclo[6.2.1.02,7]undeca-2,4,6-trien-1-yl]oxy]butanoic acid] |
| 369 | CN(C)C(=O)N1CCO[C@H]([C@@]23CC[C@@H](c4cc(-c5c(F)cccc5F)nnc42)C3(C)C)C1 [Compound 88, (R)-2-((5R,8R)-3-(2,6-difluorophenyl)-9,9-dimethyl-5,6,7,8-tetrahydro-5,8-methanocinnolin-8-yl)-N,N-dimethylmorpholine-4-carboxamide] |
| 14 | CC1(C)[C@H]2CC[C@]1([C@H]1CCCN(C(=O)c3cnccn3)C1)c1nnc(-c3c(F)cccc3F)cc12 [Compound 132, [3-[5-(2,6-difluorophenyl)-11,11-dimethyl-3,4-diazatricyclo[6.2.1.02,7]undeca-2,4,6-trien-1-yl]-1-piperidyl]-pyrazin-2-yl-methanone] |
| 370 | CC1(C)[C@H]2CC[C@]1([C@H]1CCCN(C(=O)NC3CC(O)C3)C1)c1nnc(-c3c(F)cccc3F)cc12 (stereo in doubt) [Compound 148, 3-[5-(2,6-difluorophenyl)-11,11-dimethyl-3,4-diazatricyclo[6.2.1.02,7]undeca-2,4,6-trien-1-yl]-N-(3-hydroxycyclobutyl)piperidine-1-carboxamide] |
| 140 | Cc1nnc(CO[C@@]23CC[C@@H](c4cc(-c5c(F)cccc5F)nnc42)C3(C)C)o1 [Compound 8, 2-((((5S,8R)-3-(2,6-difluorophenyl)-9,9-dimethyl-5,6,7,8-tetrahydro-5,8-methanocinnolin-8-yl)oxy)methyl)-5-methyl-1,3,4-oxadiazole] |
| 44.5 | CC[C@H](O[C@@]12CC[C@@H](c3cc(-c4c(F)cccc4F)nnc31)C2(C)C)C(=O)NCCO [Compound 23, (S)-2-(((5S,8R)-3-(2,6-difluorophenyl)-9,9-dimethyl-5,6,7,8-tetrahydro-5,8-methanocinnolin-8-yl)oxy)-N-(2-hydroxyethyl)butanamide] |
| 185 | CC1(C)[C@H]2CC[C@]1(Oc1cncnc1)c1nnc(-c3c(F)cccc3F)cc12 [Compound 28, (5S,8R)-3-(2,6-difluorophenyl)-9,9-dimethyl-8-(pyrimidin-5-yloxy)-5,6,7,8-tetrahydro-5,8-methanocinnoline] |
| 1030 | CC1(C)[C@H]2CC[C@]1([C@H]1CN(S(C)(=O)=O)CCO1)c1nnc(-c3c(F)cccc3F)cc12 [Compound 73, (S)-2-((5R,8R)-3-(2,6-difluorophenyl)-9,9-dimethyl-5,6,7,8-tetrahydro-5,8-methanocinnolin-8-yl)-4-(methylsulfonyl)morpholine] |
| 67 | CC1(C)[C@H]2CC[C@]1(Oc1cccnc1)c1nnc(-c3c(F)cccc3F)cc12 [Compound 27, (5S,8R)-3-(2,6-difluorophenyl)-9,9-dimethyl-8-(pyridin-3-yloxy)-5,6,7,8-tetrahydro-5,8-methanocinnoline] |
